The record followed here is patent US6953855B2 (priority 1998, dated 2005).

Each structure is given as a SMILES string.

The target in this assay is T1, muscle-type receptors (α1β1γδ subtype in human TE671/RD clonal cells) (Homo sapiens, UniProt P02708+P07510+Q07001).
T1 construct: endogenous in cells; host or cells: human TE671/RD rhabdomyosarcoma cells
Put plainly: cell-based. To be noted: read-out: agonist activity, % of nicotine's response (human muscle).

T1 sequence (P02708 21-457): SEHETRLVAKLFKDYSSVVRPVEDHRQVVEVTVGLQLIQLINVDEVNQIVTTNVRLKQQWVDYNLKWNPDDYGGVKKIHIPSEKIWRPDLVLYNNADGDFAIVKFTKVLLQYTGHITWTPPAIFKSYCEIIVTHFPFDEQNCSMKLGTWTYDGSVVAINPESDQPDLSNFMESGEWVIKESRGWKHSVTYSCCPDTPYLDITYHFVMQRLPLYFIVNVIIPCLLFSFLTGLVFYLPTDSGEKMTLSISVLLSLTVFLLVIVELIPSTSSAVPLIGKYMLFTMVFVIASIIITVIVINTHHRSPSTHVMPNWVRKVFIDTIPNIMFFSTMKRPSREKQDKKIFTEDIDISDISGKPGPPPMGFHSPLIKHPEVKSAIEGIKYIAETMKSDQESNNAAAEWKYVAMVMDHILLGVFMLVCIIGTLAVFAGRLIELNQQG
T1 sequence (P11230 24-501 partner): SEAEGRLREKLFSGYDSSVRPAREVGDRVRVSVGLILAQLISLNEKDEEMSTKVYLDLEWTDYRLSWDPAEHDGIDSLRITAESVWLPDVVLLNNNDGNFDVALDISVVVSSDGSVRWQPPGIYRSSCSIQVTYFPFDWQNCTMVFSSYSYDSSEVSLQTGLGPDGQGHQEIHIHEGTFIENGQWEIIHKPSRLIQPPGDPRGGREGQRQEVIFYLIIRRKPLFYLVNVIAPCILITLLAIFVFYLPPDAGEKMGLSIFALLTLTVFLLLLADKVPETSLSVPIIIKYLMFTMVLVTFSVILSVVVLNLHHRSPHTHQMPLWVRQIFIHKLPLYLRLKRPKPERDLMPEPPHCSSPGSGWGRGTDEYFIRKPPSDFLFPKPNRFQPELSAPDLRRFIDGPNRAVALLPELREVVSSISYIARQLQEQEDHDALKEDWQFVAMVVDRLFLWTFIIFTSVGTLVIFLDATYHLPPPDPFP
T1 sequence (P07510 23-517): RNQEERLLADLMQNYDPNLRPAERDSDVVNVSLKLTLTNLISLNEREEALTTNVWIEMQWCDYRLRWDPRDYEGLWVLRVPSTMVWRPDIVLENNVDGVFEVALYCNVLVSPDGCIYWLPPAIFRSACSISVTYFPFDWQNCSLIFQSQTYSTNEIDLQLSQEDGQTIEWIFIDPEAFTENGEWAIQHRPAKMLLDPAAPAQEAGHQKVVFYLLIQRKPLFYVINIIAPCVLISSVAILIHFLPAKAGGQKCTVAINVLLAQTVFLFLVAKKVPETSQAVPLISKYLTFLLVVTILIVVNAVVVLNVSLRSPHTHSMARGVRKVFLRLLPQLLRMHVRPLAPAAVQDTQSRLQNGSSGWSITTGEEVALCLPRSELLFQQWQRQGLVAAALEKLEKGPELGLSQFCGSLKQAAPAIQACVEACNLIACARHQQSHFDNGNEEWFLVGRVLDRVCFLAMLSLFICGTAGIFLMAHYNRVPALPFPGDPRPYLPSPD
T1 sequence (Q07001 22-517): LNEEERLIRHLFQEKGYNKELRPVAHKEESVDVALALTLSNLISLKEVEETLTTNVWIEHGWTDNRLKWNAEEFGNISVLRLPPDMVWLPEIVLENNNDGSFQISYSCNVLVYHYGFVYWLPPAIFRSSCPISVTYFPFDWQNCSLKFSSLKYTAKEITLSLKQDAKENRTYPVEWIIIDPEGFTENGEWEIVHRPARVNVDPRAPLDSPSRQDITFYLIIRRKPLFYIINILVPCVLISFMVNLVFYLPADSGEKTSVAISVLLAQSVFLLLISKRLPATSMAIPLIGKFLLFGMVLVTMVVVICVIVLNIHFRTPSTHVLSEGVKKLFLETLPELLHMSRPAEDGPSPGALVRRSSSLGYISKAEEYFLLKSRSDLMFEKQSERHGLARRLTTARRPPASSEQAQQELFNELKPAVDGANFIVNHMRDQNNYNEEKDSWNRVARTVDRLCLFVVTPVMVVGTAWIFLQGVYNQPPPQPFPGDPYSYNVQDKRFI

Take `O=C(Nc1ccc(Br)cc1)OC1C2CCN(CC2)C1Cc1cccnc1` (centres unmarked) [Compound 1, 2-((3-pyridinyl)methyl)-1-azabicyclo[2.2.2]oct-3-yl N-(4-bromophenyl)carbamate]: the activation at 100 µM was in the range of 1 to 12%.

In the case of `O=C(Nc1ccc(F)cc1)OC1C2CCN(CC2)C1Cc1cccnc1` (centres unmarked) [Compound 3, 2-((3-pyridinyl)methyl)-1-azabicyclo[2.2.2]oct-3-yl N-(4-fluorophenyl)carbamate], the activation at 100 µM was 1 to 12%. The same measure for `COc1ccc(NC(=O)OC2C3CCN(CC3)C2Cc2cccnc2)cc1` (centres unmarked) [Compound 4, 2-((3-pyridinyl)methyl)-1-azabicyclo[2.2.2]oct-3-yl N-(4-methoxyphenyl)carbamate]: 1 to 12%; for `CSc1ccc(NC(=O)OC2C3CCN(CC3)C2Cc2cccnc2)cc1` (centres unmarked) [Compound 5, 2-((3-pyridinyl)methyl)-1-azabicyclo[2.2.2]oct-3-yl N-(4-methylthiophenyl)carbamate]: 1 to 12%; for `O=C(NC1C2CCN(CC2)C1Cc1cccnc1)c1ccc(F)cc1` (centres unmarked) [Compound 8, N-(2-((3-pyridinyl)methyl)-1-azabicyclo[2.2.2]oct-3-yl)-4-fluorobenzamide]: 1 to 12%. Under `O=C(NC1C2CCN(CC2)C1Cc1cccnc1)c1cc2ccccc2o1` (centres unmarked) [Compound 9, N-(2-((3-pyridinyl)methyl)-1-azabicyclo[2.2.2]oct-3-yl)benzofuran-2-carboxamide] stands 1 to 12%; under `O=C(NC1C2CCN(CC2)C1Cc1cccnc1)c1ccc(Br)cc1` (centres unmarked) [Compound 10, N-(2-((3-pyridinyl)methyl)-1-azabicyclo[2.2.2]oct-3-yl)-4-bromobenzamide], 1 to 12%. In the case of `O=C(NC1C2CCN(CC2)C1Cc1cccnc1)c1ccccc1` (centres unmarked) [Compound 13, N-(2-((3-pyridinyl)methyl)-1-azabicyclo[2.2.2]oct-3-yl)benzamide], the activation at 100 µM lay in the range of 1 to 12%. The same measure for `COc1cccc(C(=O)NC2C3CCN(CC3)C2Cc2cccnc2)c1` (centres unmarked) [Compound 14, N-(2-((3-pyridinyl)methyl)-1-azabicyclo[2.2.2]oct-3-yl)-3-methoxybenzamide]: 1 to 12%; for `O=C(NC1C2CCN(CC2)C1Cc1cccnc1)c1cccc(Br)c1` (centres unmarked) [Compound 15, N-(2-((3-pyridinyl)methyl)-1-azabicyclo[2.2.2]oct-3-yl)-3-bromobenzamide]: 1 to 12%; for `O=C(Nc1ccccc1)NC1C2CCN(CC2)C1Cc1cccnc1` (centres unmarked) [Compound 16, N-phenyl-N′-(2-((3-pyridinyl)methyl)-1-azabicyclo[2.2.2]oct-3-yl)urea]: 1 to 12%. On to `O=C(Nc1ccc(Oc2ccccc2)cc1)NC1C2CCN(CC2)C1Cc1cccnc1` (centres unmarked) [Compound 17, N-(4-phenoxyphenyl)-N′-(2-((3-pyridinyl)methyl)-1-azabicyclo[2.2.2]oct-3-yl)urea], for which the activation at 100 µM was in the range of 1 to 12%. For the compound `CSc1ccc(NC(=O)NC2C3CCN(CC3)C2Cc2cccnc2)cc1` (centres unmarked) [Compound 18, N-(4-methylthiophenyl)-N′-(2-((3-pyridinyl)methyl)-1-azabicyclo[2.2.2]oct-3-yl)urea], the activation at 100 µM fell in the range of 1 to 12%. Turning to `O=C(Nc1cccc(F)c1)NC1C2CCN(CC2)C1Cc1cccnc1` (centres unmarked) [Compound 19, N-(3-fluorophenyl)-N′-(2-((3-pyridinyl)methyl)-1-azabicyclo[2.2.2]oct-3-yl)urea], the activation at 100 µM fell in the range of 1 to 12%. Under `O=C(Nc1ccc(Br)cc1)NC1C2CCN(CC2)C1Cc1cccnc1` (centres unmarked) [Compound 20, N-(4-bromophenyl)-N′-(2-((3-pyridinyl)methyl)-1-azabicyclo[2.2.2]oct-3-yl)urea] stands 1 to 12%; under `COc1ccccc1NC(=O)NC1C2CCN(CC2)C1Cc1cccnc1` (centres unmarked) [Compound 21, N-(2-methoxyphenyl)-N′-(2-((3-pyridinyl)methyl)-1-azabicyclo[2.2.2]oct-3-yl)urea], 1 to 12%. Turning to `COc1ccc(NC(=O)NC2C3CCN(CC3)C2Cc2cccnc2)c(OC)c1` (centres unmarked) [Compound 22, N-(2,4-dimethoxyphenyl)-N′-(2-((3-pyridinyl)methyl)-1-azabicyclo[2.2.2]oct-3-yl)urea], the activation at 100 µM fell in the range of 1 to 12%. For `O=C(Nc1ccc(Cl)c(Cl)c1)NC1C2CCN(CC2)C1Cc1cccnc1` (centres unmarked) [Compound 23, N-(3,4-dichlorophenyl)-N′-(2-((3-pyridinyl)methyl)-1-azabicyclo[2.2.2]oct-3-yl)urea], the activation at 100 µM is 1 to 12%. Regarding `COc1ccc(NC(=O)NC2C3CCN(CC3)C2Cc2cccnc2)cc1` (centres unmarked) [Compound 24, N-(4-methoxyphenyl)-N′-(2-((3-pyridinyl)methyl)-1-azabicyclo[2.2.2]oct-3-yl)urea], the activation at 100 µM lay within 1 to 12%.

Take `CN(C)c1ccc(NC(=O)NC2C3CCN(CC3)C2Cc2cccnc2)cc1` (centres unmarked) [Compound 25, N-(4-dimethylaminophenyl)-N′-(2-((3-pyridinyl)methyl)-1-azabicyclo[2.2.2]oct-3-yl)urea]: the activation at 100 µM was in the range of 1 to 12%. Under `CN(C(=O)Nc1ccccc1)C1C2CCN(CC2)C1Cc1cccnc1` (centres unmarked) [Compound 26, N-phenyl-N′-methyl-N′-(2-((3-pyridinyl)methyl)-1-azabicyclo[2.2.2]oct-3-yl)urea] stands 1 to 12%; under `CN(C(=O)Nc1ccc(Br)cc1)C1C2CCN(CC2)C1Cc1cccnc1` (centres unmarked) [Compound 27, N-(4-bromophenyl)-N′-methyl-N′-(2-((3-pyridinyl)methyl)-1-azabicyclo [2.2.2]oct-3-yl)urea], 1 to 12%. Take `O=C(C=Cc1ccccc1)NC1C2CCN(CC2)C1Cc1cccnc1` (centres unmarked) [Compound 28, N-(2-((3-pyridinyl)methyl)-1-azabicyclo[2.2.2]oct-3-yl)3-phenylprop-2-enamide]: the activation at 100 µM fell in the range of 1 to 12%. Turning to `O=C(C=Cc1ccc(Cl)cc1)NC1C2CCN(CC2)C1Cc1cccnc1` (centres unmarked) [Compound 29, N-(2-((3-pyridinyl)methyl)-1-azabicyclo[2.2.2]oct-3-yl)-3-(4-chlorophenyl)prop-2-enamide], the activation at 100 µM is 1 to 12%. The same measure for `O=C(C=Cc1ccc(Br)cc1)NC1C2CCN(CC2)C1Cc1cccnc1` (centres unmarked) [Compound 30, N-(2-((3-pyridinyl)methyl)-1-azabicyclo[2.2.2]oct-3-yl)-3-(4-bromophenyl)prop-2-enamide]: 1 to 12%; for `O=C(C=Cc1cccc(O)c1)NC1C2CCN(CC2)C1Cc1cccnc1` (centres unmarked) [Compound 31, N-(2-((3-pyridinyl)methyl)-1-azabicyclo[2.2.2]oct-3-yl)-3-(3-hydroxyphenyl)prop-2-enamide]: 1 to 12%. The same measure for `COc1cccc(C=CC(=O)NC2C3CCN(CC3)C2Cc2cccnc2)c1` (centres unmarked) [Compound 32, N-(2-((3-pyridinyl)methyl)-1-azabicyclo[2.2.2]oct-3-yl)-3-(3-methoxyphenyl)prop-2-enamide]: 1 to 12%; for `O=C(C=Cc1ccccc1F)NC1C2CCN(CC2)C1Cc1cccnc1` (centres unmarked) [Compound 33, N-(2-((3-pyridinyl)methyl)-1-azabicyclo[2.2.2]oct-3-yl)-3-(2-fluorophenyl)prop-2-enamide]: 1 to 12%; for `O=C(C=Cc1ccccc1O)NC1C2CCN(CC2)C1Cc1cccnc1` (centres unmarked) [Compound 34, N-(2-((3-pyridinyl)methyl)-1-azabicyclo[2.2.2]oct-3-yl)-3-(2-hydroxyphenyl)prop-2-enamide]: 1 to 12%.
